{"source": "PubChem BioAssay (NCI)", "experiment_in_all_cases": "growth of human tumour cells (NCI), 48 h", "key": {"HT29 colon": {"system": "HT29 colon"}, "SF-539 CNS": {"system": "SF-539 CNS"}, "SR leukemia": {"system": "SR leukemia"}, "HCC-2998 colon": {"system": "HCC-2998 colon"}, "K-562 leukemia": {"system": "K-562 leukemia"}, "A549 NSCLC": {"system": "A549 NSCLC"}, "SK-MEL-28 melanoma": {"system": "SK-MEL-28 melanoma"}, "MDA-MB-231 breast": {"system": "MDA-MB-231 breast"}, "HOP-92 NSCLC": {"system": "HOP-92 NSCLC"}, "OVCAR-5 ovarian": {"system": "OVCAR-5 ovarian"}, "UACC-62 melanoma": {"system": "UACC-62 melanoma"}, "SF-268 CNS": {"system": "SF-268 CNS"}, "HOP-62 NSCLC": {"system": "HOP-62 NSCLC"}, "IGROV1 ovarian": {"system": "IGROV1 ovarian"}, "PC-3 prostate": {"system": "PC-3 prostate"}, "SNB-19 CNS": {"system": "SNB-19 CNS"}, "HS 578T breast": {"system": "HS 578T breast"}, "COLO 205 colon": {"system": "COLO 205 colon"}, "MCF7 breast": {"system": "MCF7 breast"}, "DU-145 prostate": {"system": "DU-145 prostate"}, "SK-MEL-5 melanoma": {"system": "SK-MEL-5 melanoma"}, "OVCAR-3 ovarian": {"system": "OVCAR-3 ovarian"}, "HCT-15 colon": {"system": "HCT-15 colon"}, "ACHN renal": {"system": "ACHN renal"}, "M14 melanoma": {"system": "M14 melanoma"}, "HL-60(TB) leukemia": {"system": "HL-60(TB) leukemia"}, "HCT-116 colon": {"system": "HCT-116 colon"}, "MOLT-4 leukemia": {"system": "MOLT-4 leukemia"}, "NCI-H23 lung": {"system": "NCI-H23 lung"}}, "note": "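In this assay, cells in 96-well plates receive the compound at five concentrations for 48 hours. Endpoints are linearly interpolated between the surrounding concentrations. GI50 = concentration required for 50% inhibition of growth. TGI: concentration producing complete growth inhibition.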", "data": [{"molecule": "NC(=O)c1cnc(N[C@@H]2CCCC[C@@H]2N)nc1Nc1cccc(-n2nccn2)c1", "values": [{"measurement": "GI50", "setting": "HT29 colon", "result": 2.82, "unit": "µM"}, {"measurement": "TGI", "setting": "HT29 colon", "result": 11.5, "unit": "µM"}, {"measurement": "GI50", "setting": "SF-539 CNS", "result": 5.44, "unit": "µM"}, {"measurement": "TGI", "setting": "SF-539 CNS", "result": 17.2, "unit": "µM"}, {"measurement": "GI50", "setting": "SR leukemia", "result": 2.23, "unit": "µM"}, {"measurement": "TGI", "setting": "SR leukemia", "result": 6.5, "unit": "µM"}, {"measurement": "GI50", "setting": "HCC-2998 colon", "result": 1.99, "unit": "µM"}, {"measurement": "TGI", "setting": "HCC-2998 colon", "result": 4.82, "unit": "µM"}, {"measurement": "GI50", "setting": "K-562 leukemia", "result": 3.94, "unit": "µM"}, {"measurement": "TGI", "setting": "K-562 leukemia", "result": 14.7, "unit": "µM"}, {"measurement": "GI50", "setting": "A549 NSCLC", "result": 3.58, "unit": "µM"}, {"measurement": "TGI", "setting": "A549 NSCLC", "result": 14.3, "unit": "µM"}, {"measurement": "GI50", "setting": "SK-MEL-28 melanoma", "result": 3.26, "unit": "µM"}, {"measurement": "TGI", "setting": "SK-MEL-28 melanoma", "result": 11.3, "unit": "µM"}, {"measurement": "GI50", "setting": "MDA-MB-231 breast", "result": 4.13, "unit": "µM"}, {"measurement": "TGI", "setting": "MDA-MB-231 breast", "result": 17.3, "unit": "µM"}, {"measurement": "GI50", "setting": "HOP-92 NSCLC", "result": 2.7, "unit": "µM"}, {"measurement": "TGI", "setting": "HOP-92 NSCLC", "result": 8.72, "unit": "µM"}, {"measurement": "GI50", "setting": "OVCAR-5 ovarian", "result": 3.65, "unit": "µM"}, {"measurement": "TGI", "setting": "OVCAR-5 ovarian", "result": 15.3, "unit": "µM"}, {"measurement": "GI50", "setting": "UACC-62 melanoma", "result": 5.48, "unit": "µM"}, {"measurement": "TGI", "setting": "UACC-62 melanoma", "result": 20.3, "unit": "µM"}, {"measurement": "GI50", "setting": "SF-268 CNS", "result": 5.82, "unit": "µM"}, {"measurement": "TGI", "setting": "SF-268 CNS", "result": 19.7, "unit": "µM"}, {"measurement": "GI50", "setting": "HOP-62 NSCLC", "result": 4.69, "unit": "µM"}, {"measurement": "TGI", "setting": "HOP-62 NSCLC", "result": 17.7, "unit": "µM"}, {"measurement": "GI50", "setting": "IGROV1 ovarian", "result": 4.01, "unit": "µM"}, {"measurement": "TGI", "setting": "IGROV1 ovarian", "result": 14.3, "unit": "µM"}, {"measurement": "GI50", "setting": "PC-3 prostate", "result": 5.16, "unit": "µM"}, {"measurement": "TGI", "setting": "PC-3 prostate", "result": 20.7, "unit": "µM"}, {"measurement": "GI50", "setting": "SNB-19 CNS", "result": 10.7, "unit": "µM"}, {"measurement": "TGI", "setting": "SNB-19 CNS", "result": 25, "unit": "µM"}, {"measurement": "GI50", "setting": "HS 578T breast", "result": 3.37, "unit": "µM"}, {"measurement": "TGI", "setting": "HS 578T breast", "result": 20.7, "unit": "µM"}, {"measurement": "GI50", "setting": "COLO 205 colon", "result": 1.81, "unit": "µM"}, {"measurement": "TGI", "setting": "COLO 205 colon", "result": 4.56, "unit": "µM"}, {"measurement": "GI50", "setting": "MCF7 breast", "result": 2.33, "unit": "µM"}, {"measurement": "TGI", "setting": "MCF7 breast", "result": 10.2, "unit": "µM"}, {"measurement": "GI50", "setting": "DU-145 prostate", "result": 3.84, "unit": "µM"}, {"measurement": "TGI", "setting": "DU-145 prostate", "result": 15.8, "unit": "µM"}, {"measurement": "GI50", "setting": "SK-MEL-5 melanoma", "result": 5.37, "unit": "µM"}, {"measurement": "TGI", "setting": "SK-MEL-5 melanoma", "result": 18, "unit": "µM"}, {"measurement": "GI50", "setting": "OVCAR-3 ovarian", "result": 5.94, "unit": "µM"}, {"measurement": "TGI", "setting": "OVCAR-3 ovarian", "result": 18.4, "unit": "µM"}, {"measurement": "GI50", "setting": "HCT-15 colon", "result": 3.81, "unit": "µM"}, {"measurement": "TGI", "setting": "HCT-15 colon", "result": 14.9, "unit": "µM"}, {"measurement": "GI50", "setting": "ACHN renal", "result": 2.69, "unit": "µM"}, {"measurement": "TGI", "setting": "ACHN renal", "result": 11.1, "unit": "µM"}, {"measurement": "GI50", "setting": "M14 melanoma", "result": 2.11, "unit": "µM"}, {"measurement": "TGI", "setting": "M14 melanoma", "result": 6.14, "unit": "µM"}, {"measurement": "GI50", "setting": "HL-60(TB) leukemia", "result": 1.5, "unit": "µM"}, {"measurement": "TGI", "setting": "HL-60(TB) leukemia", "result": 3.82, "unit": "µM"}, {"measurement": "GI50", "setting": "HCT-116 colon", "result": 2.3, "unit": "µM"}, {"measurement": "TGI", "setting": "HCT-116 colon", "result": 7.7, "unit": "µM"}, {"measurement": "GI50", "setting": "MOLT-4 leukemia", "result": 2.94, "unit": "µM"}, {"measurement": "TGI", "setting": "MOLT-4 leukemia", "result": 12.7, "unit": "µM"}, {"measurement": "GI50", "setting": "NCI-H23 lung", "result": 3.24, "unit": "µM"}, {"measurement": "TGI", "setting": "NCI-H23 lung", "result": 17.2, "unit": "µM"}]}]}
